According to article PMC8224453, “A New PqsR Inverse Agonist Potentiates Tobramycin Efficacy to Eradicate Pseudomonas aeruginosa Biofilms” (Advanced Science, 2021):
“And” between values parts separate entries of the source, which are not always exact repeats. Identical values can stand only once.

Columns and labels:
[1] = molecular target: T1, CYP1A (Homo sapiens, UniProt P05177); assay: CYP inhibition (Cyprotex); assay type: in vitro ADME; settings: read-out: CYP inhibition 1A
T1 construct: Cyprotex (contract assay)
Protocol: (§1) 5.2. CYP and hERG inhibition
(§2) Assessment of in vitro drug safety regarding Cytochrom P450 (CYP) inhibition and inhibiton of human ether-à-go-go related gene (hERG) channel with a functional (patch-clamp-based) assay were performed at Cyprotex. Detailed information about the assays can be found in: https://www.cyprotex.com/admepk/in-vitro-metabolism/cytochrome-p450-inhibition, and […]

[2] = molecular target: T2, CYP2C19 (Homo sapiens, UniProt P33261); assay: CYP inhibition (Cyprotex); assay type: in vitro ADME; settings: read-out: CYP inhibition 2C19
T2 construct: Cyprotex (contract assay)
Protocol: as §1, §2

[3] = molecular target: T3, CYP2C9 (Homo sapiens, UniProt P11712); assay: CYP inhibition (Cyprotex); assay type: in vitro ADME; settings: read-out: CYP inhibition 2C9
T3 construct: Cyprotex (contract assay)
Protocol: as §1, §2

[4] = molecular target: T4, CYP2D6 (Homo sapiens, UniProt P10635); assay: CYP inhibition (Cyprotex); assay type: in vitro ADME; settings: read-out: CYP inhibition 2D6
T4 construct: Cyprotex (contract assay)
Protocol: as §1, §2

[5] = molecular target: T5, CYP3A4 (Homo sapiens, UniProt P08684); assay: CYP inhibition (Cyprotex); assay type: in vitro ADME; settings: read-out: CYP inhibition 3A4
T5 construct: Cyprotex (contract assay)
Protocol: as §1, §2

[6] = Cytotoxicity assay in HepG2; assay type: cell-based; settings: human, HepG2 cells, read-out: Cytotoxicity, viable cells
Protocol: Hep G2 or HEK293 cells (2 × 10^5 cells per well) were seeded in 24-well, flat-bottomed plates. Culturing of cells, incubations, and OD measurements were performed as described previously with slight modifications.[8] Twenty-four hours after seeding the cells, the incubation was started by the addition of test compound in a final DMSO concentration of
1%. […] At least two independent measurements were performed for each compound.

[7] = test system: Ca2+ channel (L, dihydropyridine site); assay: CEREP off-target panel, antagonist radioligand; assay type: binding; settings: @10µM
Protocol: (§3) 5. In vitro ADME/T and Safety Pharmacology
(§4) 5.1. CEREP off-targets assay
(§5) Experiments towards possible off-target effects were conducted following Eurofins Discovery protocol. Detailed information about the assays can be found in: https://www.eurofinsdiscoveryservices.com/catalogmanagement/viewitem/SafetyScreen44- […]
(§6) Table S3. Possible CEREP off-targets. entry off-target QSI 4 QSI 17 Assay
(§7) (%binding (%binding method
(§8) (1 picture or pasted object on this page, not shown here)

[8] = molecular target: T6, Dopamine transporter (Homo sapiens, UniProt Q01959); assay: CEREP off-target panel, antagonist radioligand; assay type: binding; settings: @10µM
T6 construct: Eurofins Discovery (SafetyScreen44 Panel, Cerep) P270
Protocol: as §3, §4, §5, §6, §7, §8

[9] = test system: Na+ channel (site 2); assay: CEREP off-target panel, antagonist radioligand; assay type: binding; settings: @10µM
Protocol: as §3, §4, §5, §6, §7, §8

[10] = molecular target: T7, Norepinephrine transporter (Homo sapiens, UniProt P23975); assay: CEREP off-target panel, antagonist radioligand; assay type: binding; settings: @10µM
T7 construct: Eurofins Discovery (SafetyScreen44 Panel, Cerep) P270
Protocol: as §3, §4, §5, §6, §7, §8

[11] = molecular target: T8, α1A receptor (Homo sapiens, UniProt P35348); assay: CEREP off-target panel, antagonist radioligand; assay type: binding; settings: @10µM
T8 construct: Eurofins Discovery (SafetyScreen44 Panel, Cerep) P270
Protocol: as §3, §4, §5, §6, §7, §8

[12] = molecular target: T9, β2 receptor (Homo sapiens, UniProt P07550); assay: CEREP off-target panel, antagonist radioligand; assay type: binding; settings: @10µM
T9 construct: Eurofins Discovery (SafetyScreen44 Panel, Cerep) P270
Protocol: as §3, §4, §5, §6, §7, §8

[13] = test system: PA14 wt biofilm; assay: Minimum biofilm eradicating concentration (MBEC) assay; assay type: cell-based, Pseudomonas aeruginosa
From the text: page 21: wild type (PA14 wt) was purchased from DSMZ, the German Collection of Microorganism and Cell Cultures GmbH (PA14 = DSMZ19882) and cultured in minimal proteose peptone glucose ammonium salt (PPGAS) medium. […] KCl, 19 g/L Tris-HCl, 10 g/L peptone, 5 g/L glucose and 0.1 g/L MgSO4∙7H2O. The pH value […] Agar solution was […] resulting solution was sterilized before being plated. The minimum inhibitory concentration (IC) of drug-free SqNPs, compound 4 prepared either in dimethyl sulfoxide (DMSO) or loaded in SqNPs, free Tob, Tob-loaded SqNPs, and Tob and compound 4 co-loaded SqNPs against planktonic PA14 wt were determined by standard microbroth dilution assays in 96-well plates. PA14 wt suspension was prepared from mid-log cultures in PPGAS medium and […] PBS served as a control. […] The MBECs of free Tob, Tob-loaded SqNPs, free Tob plus free compound 4 prepared in DMSO, and Tob and compound (4) co-loaded SqNPs were determined by the MBEC assay as reported in previous study.[2,7] […] The biofilm-eradicating efficacy was assessed according to viable bacterial load determined using dilution in PBS/0.05% Tween20 and plating on agar S20 page 22: plates to count CFU after overnight incubation at […]. […] Using GraphPad Prism 8.4.2, the AUC was calculated for each condition. […] After a 24h treatment, efficacy was assessed by determination of colony-forming units per millilitre (CFU/mL). […]

T9 sequence (P07550 whole entry): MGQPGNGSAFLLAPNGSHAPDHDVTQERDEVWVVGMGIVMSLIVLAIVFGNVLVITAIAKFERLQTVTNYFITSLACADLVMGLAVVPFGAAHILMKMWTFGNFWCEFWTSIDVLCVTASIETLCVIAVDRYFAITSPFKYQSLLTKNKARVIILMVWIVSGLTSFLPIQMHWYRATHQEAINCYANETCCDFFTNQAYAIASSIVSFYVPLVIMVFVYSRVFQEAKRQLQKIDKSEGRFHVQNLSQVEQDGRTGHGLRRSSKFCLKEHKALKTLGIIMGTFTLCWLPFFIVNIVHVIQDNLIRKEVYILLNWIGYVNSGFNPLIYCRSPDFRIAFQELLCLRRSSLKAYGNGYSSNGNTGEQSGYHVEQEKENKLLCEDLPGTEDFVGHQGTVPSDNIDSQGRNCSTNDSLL
T2 sequence (P33261 whole entry): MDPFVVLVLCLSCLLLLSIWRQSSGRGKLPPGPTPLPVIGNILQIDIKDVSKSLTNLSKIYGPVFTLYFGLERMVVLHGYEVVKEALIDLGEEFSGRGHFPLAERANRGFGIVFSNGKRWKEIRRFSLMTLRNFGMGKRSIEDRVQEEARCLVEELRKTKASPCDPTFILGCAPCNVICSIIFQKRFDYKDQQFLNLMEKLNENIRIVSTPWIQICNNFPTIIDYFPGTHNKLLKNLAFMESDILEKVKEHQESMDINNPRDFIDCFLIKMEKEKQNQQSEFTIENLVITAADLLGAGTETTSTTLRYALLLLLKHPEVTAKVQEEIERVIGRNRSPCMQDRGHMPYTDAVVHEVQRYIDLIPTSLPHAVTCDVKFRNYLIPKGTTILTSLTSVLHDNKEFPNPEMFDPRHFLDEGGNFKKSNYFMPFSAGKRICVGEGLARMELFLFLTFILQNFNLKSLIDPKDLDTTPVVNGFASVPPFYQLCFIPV
T4 sequence (P10635 whole entry): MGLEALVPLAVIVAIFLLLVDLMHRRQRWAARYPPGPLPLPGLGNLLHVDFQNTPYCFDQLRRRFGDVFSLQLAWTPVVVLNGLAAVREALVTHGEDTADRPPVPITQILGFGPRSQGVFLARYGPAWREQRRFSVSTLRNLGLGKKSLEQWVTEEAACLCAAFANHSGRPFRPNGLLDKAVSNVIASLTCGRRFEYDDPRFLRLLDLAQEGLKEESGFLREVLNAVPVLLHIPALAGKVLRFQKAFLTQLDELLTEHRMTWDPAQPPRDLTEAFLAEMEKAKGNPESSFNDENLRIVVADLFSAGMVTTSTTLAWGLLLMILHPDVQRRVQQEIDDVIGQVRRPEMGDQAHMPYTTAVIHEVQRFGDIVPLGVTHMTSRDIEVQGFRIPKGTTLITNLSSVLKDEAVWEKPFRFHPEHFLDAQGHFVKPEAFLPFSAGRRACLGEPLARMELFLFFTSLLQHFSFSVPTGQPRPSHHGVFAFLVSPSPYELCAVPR
T5 sequence (P08684 whole entry): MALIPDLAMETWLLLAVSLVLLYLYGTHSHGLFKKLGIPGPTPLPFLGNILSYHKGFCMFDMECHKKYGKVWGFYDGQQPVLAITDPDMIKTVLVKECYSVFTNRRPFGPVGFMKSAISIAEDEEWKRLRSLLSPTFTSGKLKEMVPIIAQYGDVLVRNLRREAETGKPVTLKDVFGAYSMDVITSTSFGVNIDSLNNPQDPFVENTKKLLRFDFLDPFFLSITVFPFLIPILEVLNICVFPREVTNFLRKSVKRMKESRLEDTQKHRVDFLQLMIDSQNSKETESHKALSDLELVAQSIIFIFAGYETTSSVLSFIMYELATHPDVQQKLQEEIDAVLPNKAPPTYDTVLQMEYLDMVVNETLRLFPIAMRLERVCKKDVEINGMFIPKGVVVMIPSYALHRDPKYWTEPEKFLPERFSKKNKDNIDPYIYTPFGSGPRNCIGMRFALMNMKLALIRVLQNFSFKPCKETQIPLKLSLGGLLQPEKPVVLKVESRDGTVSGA
T8 sequence (P35348 whole entry): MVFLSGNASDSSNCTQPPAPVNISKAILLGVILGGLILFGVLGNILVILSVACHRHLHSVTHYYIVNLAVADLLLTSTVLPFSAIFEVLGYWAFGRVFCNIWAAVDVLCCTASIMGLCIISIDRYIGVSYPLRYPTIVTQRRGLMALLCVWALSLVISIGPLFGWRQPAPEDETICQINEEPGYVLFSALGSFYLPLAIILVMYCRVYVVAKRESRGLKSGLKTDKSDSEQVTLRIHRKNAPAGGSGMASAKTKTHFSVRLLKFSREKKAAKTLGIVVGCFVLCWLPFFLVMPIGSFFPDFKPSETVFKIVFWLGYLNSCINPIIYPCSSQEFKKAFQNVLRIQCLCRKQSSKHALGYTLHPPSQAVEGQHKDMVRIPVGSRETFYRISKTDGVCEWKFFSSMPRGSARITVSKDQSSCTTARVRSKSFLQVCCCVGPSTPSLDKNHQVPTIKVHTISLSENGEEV
T7 sequence (P23975 whole entry): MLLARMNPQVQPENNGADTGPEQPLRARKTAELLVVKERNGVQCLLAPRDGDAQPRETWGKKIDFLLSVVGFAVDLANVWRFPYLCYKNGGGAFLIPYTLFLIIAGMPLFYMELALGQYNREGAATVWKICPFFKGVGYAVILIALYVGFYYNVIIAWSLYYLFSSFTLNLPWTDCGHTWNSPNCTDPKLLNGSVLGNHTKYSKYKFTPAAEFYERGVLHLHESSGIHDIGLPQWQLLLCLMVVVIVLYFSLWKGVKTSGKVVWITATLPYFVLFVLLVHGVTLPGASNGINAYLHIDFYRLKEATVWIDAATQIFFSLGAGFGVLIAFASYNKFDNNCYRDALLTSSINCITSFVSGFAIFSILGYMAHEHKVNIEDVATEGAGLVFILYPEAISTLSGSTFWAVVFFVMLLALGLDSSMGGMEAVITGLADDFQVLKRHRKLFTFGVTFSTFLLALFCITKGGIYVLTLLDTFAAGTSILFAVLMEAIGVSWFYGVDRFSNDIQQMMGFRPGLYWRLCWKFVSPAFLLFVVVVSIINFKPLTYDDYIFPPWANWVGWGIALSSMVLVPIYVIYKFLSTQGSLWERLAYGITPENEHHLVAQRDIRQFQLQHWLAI
T3 sequence (P11712 whole entry): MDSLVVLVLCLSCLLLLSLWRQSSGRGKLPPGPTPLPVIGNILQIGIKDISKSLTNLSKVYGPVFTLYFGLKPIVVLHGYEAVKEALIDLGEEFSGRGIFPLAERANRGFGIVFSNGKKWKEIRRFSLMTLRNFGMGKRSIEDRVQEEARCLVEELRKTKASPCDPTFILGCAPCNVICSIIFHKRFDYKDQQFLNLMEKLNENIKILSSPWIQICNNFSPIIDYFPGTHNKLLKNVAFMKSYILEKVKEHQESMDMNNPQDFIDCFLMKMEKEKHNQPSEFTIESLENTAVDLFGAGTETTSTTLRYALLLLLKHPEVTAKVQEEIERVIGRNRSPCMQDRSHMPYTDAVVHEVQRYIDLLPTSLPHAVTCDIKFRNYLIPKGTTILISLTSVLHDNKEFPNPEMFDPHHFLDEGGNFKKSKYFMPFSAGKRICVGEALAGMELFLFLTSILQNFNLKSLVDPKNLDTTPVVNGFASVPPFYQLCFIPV
T1 sequence (P05177 2-516 limits assumed): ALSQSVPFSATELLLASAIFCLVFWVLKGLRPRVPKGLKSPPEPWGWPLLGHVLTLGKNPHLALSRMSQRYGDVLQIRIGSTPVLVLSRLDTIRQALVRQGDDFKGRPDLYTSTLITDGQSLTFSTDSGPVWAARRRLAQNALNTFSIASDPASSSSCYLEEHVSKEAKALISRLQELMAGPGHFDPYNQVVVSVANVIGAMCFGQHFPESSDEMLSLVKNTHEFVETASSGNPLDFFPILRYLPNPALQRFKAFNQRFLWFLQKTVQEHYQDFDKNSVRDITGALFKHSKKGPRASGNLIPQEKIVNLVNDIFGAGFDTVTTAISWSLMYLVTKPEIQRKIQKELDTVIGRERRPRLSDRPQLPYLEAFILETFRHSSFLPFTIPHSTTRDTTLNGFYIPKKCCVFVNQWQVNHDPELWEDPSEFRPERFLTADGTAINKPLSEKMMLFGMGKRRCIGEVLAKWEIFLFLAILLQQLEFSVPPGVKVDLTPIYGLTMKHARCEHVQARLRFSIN
T6 sequence (Q01959 whole entry): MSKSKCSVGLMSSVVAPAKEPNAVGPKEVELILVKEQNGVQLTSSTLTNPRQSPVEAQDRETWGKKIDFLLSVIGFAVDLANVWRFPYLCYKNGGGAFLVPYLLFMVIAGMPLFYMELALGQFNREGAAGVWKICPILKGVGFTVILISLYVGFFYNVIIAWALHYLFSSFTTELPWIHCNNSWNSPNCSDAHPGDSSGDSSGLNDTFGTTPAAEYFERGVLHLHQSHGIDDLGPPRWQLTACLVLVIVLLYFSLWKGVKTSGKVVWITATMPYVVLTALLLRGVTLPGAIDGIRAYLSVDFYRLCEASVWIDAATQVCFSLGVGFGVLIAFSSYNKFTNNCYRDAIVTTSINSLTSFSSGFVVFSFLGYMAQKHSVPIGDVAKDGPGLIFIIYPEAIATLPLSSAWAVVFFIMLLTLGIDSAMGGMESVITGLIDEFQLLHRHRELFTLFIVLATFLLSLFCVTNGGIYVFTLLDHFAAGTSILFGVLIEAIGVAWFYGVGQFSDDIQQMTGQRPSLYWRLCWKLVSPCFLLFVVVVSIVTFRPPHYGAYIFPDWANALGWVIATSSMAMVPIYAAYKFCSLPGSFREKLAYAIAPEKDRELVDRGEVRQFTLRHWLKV

Structure (SMILES)	IC50 [1]	IC50 [2]	IC50 [3]	IC50 [4]	IC50 [5]	viability at 48 h, 25 × 10^−6 M ([6]; HepG2, @25 × 10^−6 M)	% binding, Ca2+ channel (L, dihydropyridine site) [7]	% binding, Dopamine transporter [8]	% binding, Na+ channel (site 2) [9]	% binding, Norepinephrine transporter [10]	% binding, α1A receptor [11]	% binding, β2 receptor [12]	PA14 wt biofilm inhibitory effect ([13]; controls of the MBEC assay, compound 4 at 20 μM)	viability at 48 h, 75 × 10^−6 M ([6]; HepG2, @75 × 10^−6 M)	MBEC (Tob concentration for complete biofilm eradication) ([13]; PA14 wt biofilm, 24 h treatment, 4 constant at 20 × 10^−6 M where used)
FC(F)(F)c1cc(NCc2cn(-c3ccc(Oc4ccccc4)cc3)nn2)ccn1 [Compound 4]	> 25 µM	20.3 µM	16.4 µM	> 25 µM	15 µM	55%	78.29%	97.25%	54.62%	82.52%	40.59%	18.03% and 18%	did not show any PA14 wt biofilm inhibitory effects		
COc1ccc(-n2cc(CNc3ccnc(C(F)(F)F)c3)nn2)cc1Cl [Compound 17]	22.1 µM	3.6 µM and 3.55 µM	> 25 µM	> 25 µM	> 25 µM		30.36%	28.91%	-27.90%	8.58%	55.42%	85.3% and 85%		68%	
NC[C@H]1O[C@H](O[C@H]2[C@H](O)[C@@H](O[C@H]3O[C@H](CO)[C@@H](O)[C@H](N)[C@H]3O)[C@H](N)C[C@@H]2N)[C@H](N)C[C@@H]1O [Tobramycin, tobramycin]															higher than 200 µg mL^−1
